Assay results from US20240415918A1, “Polypeptide and its use as a CCK receptor agonist/antagonist” (Centre for Regenerative Medicine & Health, Hong Kong …, priority 2021, published 2024).
Where a SMILES comes first, the peptide text is derived from it. [ ]: non-standard residue; d: D form. Phe(3-Br) = N[C@@H](Cc1cccc(Br)c1)C(=O)O; Gly(octyl) = CCCCCCCC[C@H](N)C(=O)O

How the values were obtained:
[1] = target: T1, CCK-B receptors (CHO-CCK) (Homo sapiens, UniProt P32239); experiment: Calcium flux (Fluo-8) agonist test on CHO-CCK model cells; format: cell-based; details: for EC50: CHO-CCK cells; for Agonistic Activity (%) at 10 μM: compound at 10 μM, percentage of signal of 20 nM CCK8 alone
T1 construct: expressed in transfected cells; host or cells: CHO (CHO-CCK model cells)
T1 sequence (P32239 1-447): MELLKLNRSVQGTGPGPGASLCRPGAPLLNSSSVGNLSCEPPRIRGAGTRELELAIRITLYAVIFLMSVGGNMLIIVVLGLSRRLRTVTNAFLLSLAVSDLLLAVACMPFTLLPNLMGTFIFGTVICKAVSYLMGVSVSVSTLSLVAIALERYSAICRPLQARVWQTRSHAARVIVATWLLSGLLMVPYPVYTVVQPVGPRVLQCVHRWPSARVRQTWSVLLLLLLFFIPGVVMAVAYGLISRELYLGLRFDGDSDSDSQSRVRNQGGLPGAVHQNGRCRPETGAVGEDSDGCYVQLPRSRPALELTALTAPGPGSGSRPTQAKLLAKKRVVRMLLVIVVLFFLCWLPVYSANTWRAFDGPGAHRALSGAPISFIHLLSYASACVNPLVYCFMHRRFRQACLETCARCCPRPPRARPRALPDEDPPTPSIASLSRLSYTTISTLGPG
Procedure, shortened: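 Agonist-mode Fluo-8 calcium flux read on CHO-CCK cells after dye loading 30 min at 37 °C plus 30 min at room temperature.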

[2] = target: T1, CCK-B receptors (CHO-CCK); experiment: Calcium flux (Fluo-8) antagonist test on CHO-CCK model cells in presence of CCK8; format: cell-based
[3] = compound alone, 100% = 20 nM CCK8
[4] = compound together with 10 nM CCK8
[5] = Fluo-8 calcium flux, 100% control = 20 nM CCK8

Row | SMILES | EC50 [1, 3] [µM] | Agonistic Activity (%) at 10 μM [1] [%] | EC50 [2, 4] [µM] | EC50 [1, 5] [µM] | EC50 ([2]; in presence of 10 nM CCK8) [µM] | EC50 ([1]; Fluo-8 calcium flux, bound in μM) [µM]
1 | COC(=O)C[C@H](NC(=O)[C@H](CCSC)NC(=O)[C@H](N)Cc1c[nH]c2ccccc12)C(=O)N[C@@H](Cc1cc(Cl)cc(Cl)c1)C(N)=O [HT-89, D-Trp-Met-Asp(Ome)-Phe(3,5-DiCl)-NH2] | 3.21 | 44.86 | 3.62 | – | – | –
2 | COC(=O)C[C@H](NC(=O)[C@H](CCSC)NC(=O)[C@H](N)Cc1c[nH]c2ccccc12)C(=O)N[C@@H](Cc1ccc(F)cc1)C(N)=O [HT-87, D-Trp-Met-Asp(Ome)-Phe(4-F)-NH2] | – | 28.73 | 9.98 | – | – | –
3 | CC(=O)N[C@H](Cc1c[nH]c2ccccc12)C(=O)N[C@@H](CCC(N)=O)C(=O)N[C@@H](CC(=O)O)C(=O)N[C@@H](Cc1cccc(Br)c1)C(N)=O [HT-185, Ac-D-Trp-Gln-Asp-Phe(3-Br)-NH2] | 3.82 | – | 12 | – | – | –
4 | CCCCCCCCCCCCCC[C@@H](NC(C)=O)C(=O)N[C@@H](CCCC)C(=O)N[C@@H](CCCCCC)C(=O)N[C@@H](Cc1cccc(Br)c1)C(N)=O [HT-266, Ac-Ha-Nle-Oa-Phe(3-Br)-NH2] | – | – | – | 0.0402 | 1.29 | –
5 | CCCC[C@H](NC(=O)[C@H](Cc1c[nH]c2ccccc12)NC(C)=O)C(=O)N[C@@H](CCC(=O)O)C(=O)N[C@@H](Cc1c(C)[nH]c2ccccc12)C(N)=O [HT-242, Ac-D-Trp-Nle-Glu-(2-Me-Trp)-NH2] | – | – | – | – | 1.31 | > 10
6 | CSCC[C@H](NC(=O)[C@H](N)Cc1c[nH]c2ccccc12)C(=O)N[C@@H](CC(=O)O)C(=O)N[C@@H](Cc1ccc(C#N)cc1)C(N)=O [HT-32, D-Trp-Met-Asp-Phe(4-CN)-NH2] | 1.13 | 57.37 | 2.66 | – | – | –
7 | CCCC[C@H](NC(=O)[C@@H](Cc1cn(C)c2ccccc12)NC(C)=O)C(=O)N[C@@H](CCC(=O)O)C(=O)N[C@@H](Cc1cccc(Br)c1)C(N)=O [HT-243, Ac-(1-Me-Trp)-Nle-Glu-Phe(3-Br)-NH2] | – | – | – | 0.44 | 1.41 | –
8 | CCCCCCCC[C@H](NC(=O)[C@H](Cc1c[nH]c2ccccc12)NC(C)=O)C(=O)N[C@@H](CC(=O)O)C(=O)N[C@@H](Cc1cccc(Br)c1)C(N)=O [HT-261, Ac-D-Trp-Da-Asp-Phe(3-Br)-NH2] (Ac-W[Gly(octyl)]D[Phe(3-Br)]-NH2) | – | – | – | 0.362 | 3.82 | –
9 | C[S+]([O-])CC[C@H](NC(=O)[C@H](N)Cc1c[nH]c2ccccc12)C(=O)N[C@@H](CC(=O)O)C(=O)N[C@@H](Cc1cccc(I)c1)C(N)=O (stereo partly drawn) [HT-45, D-Trp-Met(O)-Asp-Phe(3-I)-NH2] | 4.38 | 58.98 | 3.37 | – | – | –
10 | CCCC[C@H](NC(=O)[C@@H](Cc1c(C)[nH]c2ccccc12)NC(C)=O)C(=O)N[C@@H](CCC(=O)O)C(=O)N[C@@H](Cc1cccc(Br)c1)C(N)=O [HT-244, Ac-(2-Me-Trp)-Nle-Glu-Phe(3-Br)-NH2] | – | – | – | 7.32 | 1.36 | –
11 | CS(=O)(=O)CC[C@H](NC(=O)[C@H](N)Cc1c[nH]c2ccccc12)C(=O)N[C@@H](CC(=O)O)C(=O)N[C@@H](Cc1cccc(Br)c1)C(N)=O [HT-63, D-Trp-Met(O2)-Asp-Phe(3-Br)-NH2] | 6.05 | 48.46 | 7.5 | – | – | –
12 | CSCC[C@H](NC(=O)[C@@H](Cc1c[nH]c2ccccc12)NC(=O)CNC(=O)[C@H](Cc1ccc(O)cc1)NC(=O)[C@H](CC(N)=O)NC(=O)[C@H](CCCCN)NC(=O)[C@@H](NC(=O)[C@H](C)NC(=O)[C@H](CC(N)=O)NC(=O)[C@@H](NC(=O)[C@H](Cc1c[nH]cn1)NC(=O)CNC(=O)[C@H](CO)NC(=O)[C@H](CC(N)=O)NC(=O)[C@H](C)NC(=O)[C@H](Cc1ccc(O)cc1)NC(C)=O)C(C)C)C(C)C)C(=O)N[C@@H](CC(=O)O)C(=O)N[C@@H](Cc1cccc(Br)c1)C(N)=O [HT-218] (Ac-YANSGHVNAVKNYG[dW]MD[Phe(3-Br)]-NH2) | – | – | – | 0.395 | 0.68 | –
